Consider 27 compounds from US20250195530A1, “POLQ INHIBITORS” (ASTRAZENECA AB, priority 2022, published 2025).

Like-named read-outs stand apart in the source and are kept apart here.

In one experiment the test system is DLD-1 cells. Put plainly: Inhibition of proliferation, DLD-1 BRCA2 wt control (Cell Titre Glo 3D). The format is cell-based. Conditions: Homo sapiens, DLD-1, 168 h, 7 days. In a few lines: (§1)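 Read-out: CellTiter-Glo 3D luminescence, day 7 for wt DLD-1, day 12 for BRCA2−/−, about 8-9 population doublings each. Seeding 1,500 or 3,000 cells/mL respectively. Dose range 10 μM–0.51 nM, 3-fold, 10 points, with re-dosing on day 6. IC50 from curve fit.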

The test system of a further experiment is DLD-1 BRCA2−/− cells. Nature of the experiment: Homologous recombination synthetic lethal inhibition of proliferation, DLD-1 BRCA2-/- (Cell Titre Glo 3D). The format is cell-based. Conditions: Homo sapiens, DLD-1, 288 h, 12 days. In a few lines:
as §1

Setting [1] is: DLD-1 (BRCA2 wt control), Cell Titre Glo 3D, read-out: POLQ PD Prolif Lumin DLD1 Mean pIC50 (converted).
Where [2] appears, read: DLD-1 BRCA2−/−, Cell Titre Glo 3D, read-out: POLQ PD Prolif Lumin BRCA2 −/− Mean pIC50 (converted).
Where [3] appears, read: DLD-1 BRCA2 wt cells, read-out: POLQ PD Prolif Lumin DLD1 mean pIC50 (converted).
Setting [4] is: DLD-1 BRCA2−/− cells, read-out: POLQ PD Prolif Lumin BRCA2 −/− mean pIC50 (converted).

Take `Cc1ccnc(Cn2c(-c3ccc(O[C@H]4CCC(=O)NC4)cc3Cl)nc3c(OC4(C)CC4)ncnc32)c1` [Example 41, (S)-5-(3-Chloro-4-(6-(1-methylcyclopropoxy)-9-((4-methylpyridin-2-yl)methyl)-9H-purin-8-yl)phenoxy)piperidin-2-one]: the values for the IC50 in the experiment with DLD-1 cells (setting [1]) and with DLD-1 BRCA2−/− cells (setting [2]) were more than 10 µM and 0.794 µM, respectively.
`Cc1ccnc(Cn2c(-c3ccc(OC4CNC(=O)NC4)cc3Cl)nc3c(OC4(C)CC4)ncnc32)c1` [Example 42, 5-(3-Chloro-4-(6-(1-methylcyclopropoxy)-9-((4-methylpyridin-2-yl)methyl)-9H-purin-8-yl)phenoxy)tetrahydropyrimidin-2(1H)-one]: the IC50 in the experiment with DLD-1 cells (setting [1]) was more than 10 µM; in the experiment with DLD-1 BRCA2−/− cells (setting [2]), 6.31 µM.
Taken in the same sequence, the figures for `CC1(Oc2ncnc3c2nc(-c2ccc(OCCCCC(=O)O)cc2Cl)n3Cc2cccc(Cl)c2)CC1` [Example 43, 5-(3-Chloro-4-(9-(3-chlorobenzyl)-6-(1-methylcyclopropoxy)-9H-purin-8-yl)phenoxy)pentanoic acid] were more than 10 µM and 0.0794 µM.
The corresponding values for `CC1(Oc2ncnc3c2nc(-c2ccc(OCCCC(=O)O)cc2Cl)n3Cc2cccc(Cl)c2)CC1` [Example 44, 4-(3-Chloro-4-(9-(3-chlorobenzyl)-6-(1-methylcyclopropoxy)-9H-purin-8-yl)phenoxy)butanoic acid] are more than 10 µM and 0.158 µM.
Turning to `Cc1ccnc(Cn2c(-c3ccc(OCC(C)(C)O)cc3Cl)nc3c(OC4(C)CC4)ncnc32)c1` [Example 45, 1-(3-Chloro-4-(6-(1-methylcyclopropoxy)-9-((4-methylpyridin-2-yl)methyl)-9H-purin-8-yl)phenoxy)-2-methylpropan-2-ol], the IC50 in the experiment on DLD-1 cells (setting [1]) is more than 10 µM; with DLD-1 BRCA2−/− cells (setting [2]), 0.2 µM.
Taken in the same sequence, the figures for `CC1(Oc2ncnc3c2nc(-c2ccc(OCCOCC(=O)O)cc2Cl)n3Cc2cccc(Cl)c2)CC1` [Example 46, 2-(2-(3-Chloro-4-(9-(3-chlorobenzyl)-6-(1-methylcyclopropoxy)-9H-purin-8-yl)phenoxy)ethoxy)acetic acid] were more than 10 µM and 1.26 µM.
As for `COc1ccc(Cl)cc1Cn1c(-c2ccc(OCC[C@@H](C)C(=O)O)cc2Cl)nc2c(OC3(C)CC3)ncnc21` [Example 47, (R)-4-(3-chloro-4-(9-(5-chloro-2-methoxybenzyl)-6-(1-methylcyclopropoxy)-9H-purin-8-yl)phenoxy)-2-methylbutanoic acid], the IC50 is more than 7.94 µM with DLD-1 cells (setting [1]) and 0.0251 µM in the experiment with DLD-1 BRCA2−/− cells (setting [2]).
Consider `COc1ccc(Cl)cc1Cn1c(-c2ccc(OCC[C@H](C)C(=O)O)cc2Cl)nc2c(OC3(C)CC3)ncnc21` [Example 48, (S)-4-(3-chloro-4-(9-(5-chloro-2-methoxybenzyl)-6-(1-methylcyclopropoxy)-9H-purin-8-yl)phenoxy)-2-methylbutanoic acid], for which the IC50 with DLD-1 cells (setting [1]) is more than 10 µM; in the experiment on DLD-1 BRCA2−/− cells (setting [2]), 0.0398 µM.
With `COc1ccc(Cl)cc1Cn1c(-c2cccc(OCCC(=O)O)c2Cl)nc2c(OC3(C)CC3)ncnc21` [Example 49, 3-(2-Chloro-3-(9-(5-chloro-2-methoxybenzyl)-6-(1-methylcyclopropoxy)-9H-purin-8-yl)phenoxy)propanoic acid], the IC50 is more than 10 µM with DLD-1 cells (setting [1]) and 0.0158 µM with DLD-1 BRCA2−/− cells (setting [2]).
In the case of `COc1ccc(Cl)cc1Cn1c(-c2cccc(O[C@H]3C[C@@H](C(=O)O)C3)c2Cl)nc2c(OC3(C)CC3)ncnc21` [Example 52, (1s,3s)-3-(2-chloro-3-(9-(5-chloro-2-methoxybenzyl)-6-(1-methylcyclopropoxy)-9H-purin-8-yl)phenoxy)cyclobutane-1-carboxylic acid], the IC50 in the experiment on DLD-1 cells (setting [1]) was more than 10 µM; in the experiment with DLD-1 BRCA2−/− cells (setting [2]), 0.0126 µM.
In the case of `CC(=O)NCCCOc1ccc(-c2nc3cc(OC(C)C)ccc3n2Cc2ccccc2)c(Cl)c1` [Example A3, N-(3-(4-(1-benzyl-5-isopropoxy-1H-benzo[d]imidazol-2-yl)-3-chlorophenoxy)propyl)acetamide], the IC50 in the experiment on DLD-1 cells (setting [3]) was 5.01 µM; in the experiment with DLD-1 BRCA2−/− cells (setting [4]) it was 0.501 µM.
With `Cc1cc(OCCN2CCN(C)CC2)ncc1-c1nc2cc(OC(C)C)ccc2n1Cc1cccc(Cl)c1` [Example A7, 1-(3-chlorobenzyl)-5-isopropoxy-2-(4-methyl-6-(2-(4-methylpiperazin-1-yl)ethoxy)pyridin-3-yl)-1H-benzo[d]imidazole], the IC50 is 1.58 µM in the experiment on DLD-1 cells (setting [3]) and 0.251 µM with DLD-1 BRCA2−/− cells (setting [4]).
For the compound `COc1ccc(-c2nc3cc(OC(C)C)ccc3n2Cc2ccccc2)c(Cl)c1` [Example A12, 1-benzyl-2-(2-chloro-4-methoxyphenyl)-5-isopropoxy-1H-benzo[d]imidazole], the IC50 in the experiment on DLD-1 cells (setting [3]) is more than 10 µM; with DLD-1 BRCA2−/− cells (setting [4]), 2 µM.
Taken in the same sequence, the figures for `CC(C)Oc1ncnc2c1nc(-c1ccc(OCCN3CCN(C)CC3)cc1)n2Cc1ccccc1` [Example B1, 9-benzyl-6-isopropoxy-8-(4-(2-(4-methyl-piperazin-1-yl)ethoxy)phenyl)-9H-purine] were 7.94 µM and 1 µM.
For the compound `Cc1cc(OCCN2CCNCC2)ccc1-c1nc2c(OC(C)C)ncnc2n1Cc1ccccc1` [Example B2, 9-benzyl-6-isopropoxy-8-(2-methyl-4-(2-(piperazin-1-yl)ethoxy)phenyl)-9H-purine], the IC50 in the experiment with DLD-1 cells (setting [3]) was 6.31 µM; in the experiment with DLD-1 BRCA2−/− cells (setting [4]), 0.501 µM.
The corresponding values for `CC(=O)N1CCN(CCOc2ccc(-c3nc4c(OC(C)C)ncnc4n3Cc3ccccc3)c(C)c2)CC1` [Example B4, 1-(4-(2-(4-(9-benzyl-6-isopropoxy-9H-purin-8-yl)-3-methyl-phenoxy)ethyl)piperazin-1-yl)ethan-1-one] are more than 10 µM and 0.794 µM.
For the compound `Cc1cc(OCCN2CCN(C)CC2)ccc1-c1nc2c(OC3(C)CC3)ncnc2n1Cc1ccccc1` [Example C1, 9-benzyl-8-(2-methyl-4-(2-(4-methylpiperazin-1-yl)ethoxy)phenyl)-6-(1-methylcyclopropoxy)-9H-purine], the IC50 was 5.01 µM with DLD-1 cells (setting [3]) and 0.1 µM in the experiment on DLD-1 BRCA2−/− cells (setting [4]).
As to `CC(=O)N1CCN(c2cc(C)c(-c3nc4c(OC5(C)CC5)ncnc4n3Cc3ccccc3)cn2)CC1` [Example C2, 1-(4-(5-(9-benzyl-6-(1-methylcyclopropoxy)-9H-purin-8-yl)-4-methylpyridin-2-yl)piperazin-1-yl)ethan-1-one], the IC50 was more than 10 µM with DLD-1 cells (setting [3]) and 0.316 µM with DLD-1 BRCA2−/− cells (setting [4]).
Taken in the same sequence, the figures for `Cc1cc(OCCN2CCN(C)CC2)ncc1-c1nc2c(OC3(C)CC3)ncnc2n1Cc1ccccc1` [Example C3, 9-benzyl-8-(4-methyl-6-(2-(4-methylpiperazin-1-yl)ethoxy)pyridin-3-yl)-6-(1-methylcyclopropoxy)-9H-purine] were 7.94 µM and 0.316 µM.
As for `CN(C)[C@@H]1CCN(c2ccc(-c3nc4c(OC5(C)CC5)ncnc4n3Cc3ccccc3)c(Cl)c2)C1` [Example C4, (R)-1-(4-(9-benzyl-6-(1-methylcyclopropoxy)-9H-purin-8-yl)-3-chlorophenyl)-N,N-dimethylpyrrolidin-3-amine], the IC50 was 2.51 µM in the experiment with DLD-1 cells (setting [3]) and 0.2 µM in the experiment with DLD-1 BRCA2−/− cells (setting [4]).
With `Cc1cc(N2CCNCC2)ncc1-c1nc2c(OC3(C)CC3)ncnc2n1Cc1ccccc1` [Example C5, 9-benzyl-8-(4-methyl-6-(piperazin-1-yl)pyridin-3-yl)-6-(1-methylcyclopropoxy)-9H-purine], the IC50 in the experiment on DLD-1 cells (setting [3]) is more than 10 µM; with DLD-1 BRCA2−/− cells (setting [4]) it was 0.316 µM.
In the case of `COc1cccc(-c2nc3c(OC4(C)CC4)ncnc3n2Cc2ccccc2)c1Cl` [Example C6, 9-benzyl-8-(2-chloro-3-methoxyphenyl)-6-(1-methylcyclopropoxy)-9H-purine], the figures for the IC50 in the experiment on DLD-1 cells (setting [3]) and with DLD-1 BRCA2−/− cells (setting [4]) were more than 10 µM and 0.0794 µM, respectively.
With `CC1(Oc2ncnc3c2nc(-c2ccc(N4CCNCC4)cc2Cl)n3Cc2ccccc2)CC1` [Example C7, 9-benzyl-8-(2-chloro-4-(piperazin-1-yl)phenyl)-6-(1-methylcyclopropoxy)-9H-purine], the IC50 in the experiment with DLD-1 cells (setting [3]) is 6.31 µM; in the experiment on DLD-1 BRCA2−/− cells (setting [4]), 0.251 µM.
Taken in the same sequence, the figures for `CC1(Oc2ncnc3c2nc(-c2ccc(OCC(=O)N4CCNCC4)cc2Cl)n3Cc2ccccc2)CC1` [Example C8, 2-(4-(9-benzyl-6-(1-methylcyclopropoxy)-9H-purin-8-yl)-3-chloro-phenoxy)-1-(piperazin-1-yl)ethan-1-one] were 6.31 µM and 0.316 µM.
As for `CN1CCN(C(=O)COc2ccc(-c3nc4c(OC5(C)CC5)ncnc4n3Cc3ccccc3)c(Cl)c2)CC1` [Example C9, 2-(4-(9-benzyl-6-(1-methylcyclopropoxy)-9H-purin-8-yl)-3-chloro-phenoxy)-1-(4-methyl-piperazin-1-yl)ethan-1-one], the IC50 in the experiment on DLD-1 cells (setting [3]) was more than 10 µM; with DLD-1 BRCA2−/− cells (setting [4]), 0.126 µM.
Taken in the same sequence, the figures for `CC(=O)N1CCC(COc2ccc(-c3nc4c(OC5(C)CC5)ncnc4n3Cc3ccccc3)c(Cl)c2)CC1` [Example D1, 1-(4-((4-(9-benzyl-6-(1-methylcyclopropoxy)-9H-purin-8-yl)-3-chlorophenoxy)methyl)piperidin-1-yl)ethan-1-one] were 6.31 µM and 0.0794 µM.
Take `CC(=O)N1CCN(CCOc2ccc(-c3nc4c(OC5(C)CC5)ncnc4n3Cc3ccccc3)c(Cl)c2)CC1` [Example D5, 1-(4-(2-(4-(9-benzyl-6-(1-methylcyclopropoxy)-9H-purin-8-yl)-3-chlorophenoxy)ethyl)piperazin-1-yl)ethan-1-one]: the results for the IC50 in the experiment with DLD-1 cells (setting [3]) and in the experiment with DLD-1 BRCA2−/− cells (setting [4]) were 2.51 µM and 0.0631 µM, respectively.
